Test results published in patent US6936625B2 (Hanmi Pharm. Co., Ltd., priority 2001, dated 2005).
≈ marks a conversion by molar mass, not a printed value. Like-named read-outs stand apart in the source and are kept apart here.

Experiments:
[1] = tested on: Quail; conditions: oral; cited from earlier work
[2] = tested on: Mouse; conditions: in vivo, sc; cited from earlier work
[3] = Solubility test (saturation in distilled water, liquid chromatography); assay type: physicochemical; conditions: for Solubility: distilled water to saturation, based on the amount of amlodipine
Experimental: The measurement was performed according to the procedure described in the Korean Pharmacopoeia (Korean Ministry of Health and Welfare, General principle of medical supplies, Vol. 1, Clause 29, the 7th revision) which comprises the steps of dissolving each compound in distilled water to saturation, analyzing the saturated solution with liquid chromatography, and measuring the dissolved amount of each compound based on the amount of amlodipine.

[4] = Stability test (storage at 55° C., about 50% relative humidity); assay type: physicochemical; design: remaining amount of active amlodipine: unit not given here; conditions: relative humidity about 50%; for time-dependent stability (in words): up to 4 weeks
Experimental: Specifically, each compound was stored at 55° C., a relative humidity of about 50%, and after 1, 2, 3 and 4 weeks, the remaining amount of active amlodipine was determined with a liquid chromatography.

[5] = Non-hygroscopicity test (moisture content); assay type: physicochemical; conditions: for moisture content, Condition 2: 30° C. under 95% relative humidity for 3 days; for moisture content, Condition 1: 37° C. under 75% relative humidity for 24 hours; for Initial moisture: before exposure
Experimental: When a solid form of a drug is to be formulated, it is important that the drug is not hygroscopic. Accordingly, the hygroscopicity of the inventive amlodipine camsylate was measured and compared with that of amlodipine besylate.
Each compound was exposed to two conditions: 37° C. under 75% relative humidity for 24 hours (condition 1) and 30° C. under 95% relative humidity for 3 days (condition 2), and then, the moisture content of each compound was measured according to the method described in Korean Patent Publication No. 1995-7228.

[6] = tested on: Rat; conditions: oral; cited from earlier work
[7] = tested on: Cat; conditions: cutaneous; cited from earlier work
[8] = tested on: Wild-birds; conditions: oral; cited from earlier work
[9] = in a solution; cited from earlier work

Row | Compound | remaining amount of active amlodipine ([4]; 1 week) | remaining amount of active amlodipine ([4]; 2 weeks) | remaining amount of active amlodipine ([4]; 3 weeks) | remaining amount of active amlodipine ([4]; 4 weeks) | remaining amount of active amlodipine ([4]; Initial) | moisture content, Condition 2 [5] [%] | moisture content, Condition 1 [5] [%] | Initial moisture [5] [%] | other results
1 | CC1(C)C2CCC1(CS(=O)(=O)O)C(=O)C2 (racemic) [(±)-10-Camphor sulfonic aicd, (±)-10-camphor sulfonic acid] | – | – | – | – | – | – | – | – | LD50 [1]: LD50 > 316 mg/kg
2 | CC1(C)C2CC[C@@]1(CS(=O)(=O)O)C(=O)C2 [(1S)-(+)-10-Camphor sulfonic acid, (1S)-(+)-10-camphor sulfonic acid] | – | – | – | – | – | – | – | – | LD50 [2]: LD50 2502 mg/kg
3 | CCOC(=O)C1=C(COCCN)NC(C)=C(C(=O)OC)C1c1ccccc1Cl (stereo not drawn) [Amlodipine besylate, amlodipine benzenesulfonate, reference compound] | 0.992 | 0.996 | 0.993 | 0.993 | 1 | 0.15 | 0.05 | 0.05 | Solubility ([3]; distilled water, water, thermodynamic from solid, read-out: Solubility): 1400 µg/mL; time-dependent stability (in words) [4]: slight but significant degradation after 1 week
4 | CCOC(=O)C1=C(COCCN)NC(C)=C(C(=O)OC)C1c1ccccc1Cl [Amlodipine camsylate of Example 1 (S), Amlodipine Camsylate] | 1 | 0.998 | 1 | 1 | 1 | 0.15 | 0.05 | 0.05 | Solubility [3]: 1225 µg/mL (≈ 3 mM); Saturation pH ([3]; saturated solution in distilled water): 6.0
5 | CCOC(=O)C1=C(COCCN)NC(C)=C(C(=O)OC)C1c1ccccc1Cl [Amlodipine camsylate of Example 2 (R), Amlodipine Camsylate] | 1 | 1 | 1.002 | 1 | 1 | 0.15 | 0.05 | 0.05 | Solubility [3]: 1250 µg/mL (≈ 3.06 mM)
6 | CCOC(=O)C1=C(COCCN)NC(C)=C(C(=O)OC)C1c1ccccc1Cl (stereo not drawn) [Amlodipine camsylate, amlodipine camsylate] | – | – | – | – | – | – | – | – | time-dependent stability (in words) [4]: stable during the 4 weeks period
7 | O=S(=O)(O)c1ccccc1 [Benzene sulfonic acid] | – | – | – | – | – | – | – | – | LD50 [6]: LD50 890 μl/kg; LDLO [7]: LDLO 10 g/kg; LD50 [8]: LD50 75 mg/kg
8 | amlodipine maleate | – | – | – | – | – | – | – | – | stability in solution (in words) [9]: degrades in a solution within several weeks
